In PMC9097415, “Nanomolar EP4 receptor potency and expression of eicosanoid-related enzymes in normal appearing colonic mucosa from patients with colorectal neoplasia” (BMC Gastroenterology, 2022):
“And” between values parts separate entries of the source, which are not always exact repeats. Equal values may be shown once. One block for each molecule: values may come before it.

Experiments:
EP1 receptor = molecular target: T1, EP1 receptor (Homo sapiens, UniProt P34995); assay: EP1 agonist stimulation of colonic mucosa biopsies in MUAS-chambers, SCC; assay type: cell-based; conditions: biopsies exposed to the selective EP1 agonist
T1 construct: Four biopsies were mounted and oxygenated in MUAS-chambers after extraction; from tissue; host or cells: human colonic mucosa biopsies mounted in MUAS (modified Ussing) chambers
T1 sequence (P34995 1-402): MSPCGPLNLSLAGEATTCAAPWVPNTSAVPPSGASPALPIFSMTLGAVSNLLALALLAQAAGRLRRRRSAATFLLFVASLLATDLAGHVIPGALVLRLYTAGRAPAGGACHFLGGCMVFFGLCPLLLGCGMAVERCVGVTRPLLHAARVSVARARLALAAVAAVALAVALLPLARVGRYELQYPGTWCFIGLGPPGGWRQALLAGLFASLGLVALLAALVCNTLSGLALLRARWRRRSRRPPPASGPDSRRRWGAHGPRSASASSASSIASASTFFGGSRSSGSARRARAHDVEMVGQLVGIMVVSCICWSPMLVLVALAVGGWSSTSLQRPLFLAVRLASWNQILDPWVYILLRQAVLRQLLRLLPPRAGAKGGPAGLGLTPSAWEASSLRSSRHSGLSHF
Method: (§1) Four biopsies were mounted and oxygenated in MUAS-chambers after extraction as described by Larsen et al. generally within 45 min after extraction. Biopsies were bathed on both sides with 10 mL Ringer, supplemented with 5.5 mM D-glucose. Temperature was maintained at 37.2 °C by water jackets. An automated voltage-clamp device continuously recorded SCC and slope conductance.
(§2) Experiments began after a stable basal SCC was obtained within 10 min after proper mounting. All experiments were initiated by addition of amiloride (20 µM, mucosal side) to inhibit electrogenic sodium absorption mediated through epithelial sodium channels and followed by theophylline (400 µM, serosal side) to inhibit phosphodiesterase-dependent cyclic adenosine monophosphate (cAMP) degradation. Finally, to eliminate endogenous prostaglandin synthesis, indomethacin (13 µM, serosal side) was added and incubated for 40 min.
Biopsies from 47 patients were treated with PGE2 and selective EP receptor agonists to investigate receptor function, Table 1. A single agonist was added in increasing concentrations (1 nM to 5 µM, serosal side) to each MUAS-chamber. […]
To assess agonists and receptors, data obtained from dose–response curves were analyzed with either a single-Michaelis–Menten model (srm) or a two-Michaelis–Menten receptor/site model (trm) using Sigmaplot 13.0 for Windows, Systat Software Inc. (USA/Canada). […]

EP4 receptor [1] = molecular target: T2, EP4 receptor (Homo sapiens, UniProt P35408); assay: EP4 antagonist GW-X added before PGE2 dose-response in MUAS-chambers, agonist-based Cheng-Prusoff analysis; assay type: cell-based
T2 construct: Four biopsies were mounted and oxygenated in MUAS-chambers after extraction; from tissue; host or cells: human colonic mucosa biopsies mounted in MUAS (modified Ussing) chambers
T2 sequence (P35408 whole entry): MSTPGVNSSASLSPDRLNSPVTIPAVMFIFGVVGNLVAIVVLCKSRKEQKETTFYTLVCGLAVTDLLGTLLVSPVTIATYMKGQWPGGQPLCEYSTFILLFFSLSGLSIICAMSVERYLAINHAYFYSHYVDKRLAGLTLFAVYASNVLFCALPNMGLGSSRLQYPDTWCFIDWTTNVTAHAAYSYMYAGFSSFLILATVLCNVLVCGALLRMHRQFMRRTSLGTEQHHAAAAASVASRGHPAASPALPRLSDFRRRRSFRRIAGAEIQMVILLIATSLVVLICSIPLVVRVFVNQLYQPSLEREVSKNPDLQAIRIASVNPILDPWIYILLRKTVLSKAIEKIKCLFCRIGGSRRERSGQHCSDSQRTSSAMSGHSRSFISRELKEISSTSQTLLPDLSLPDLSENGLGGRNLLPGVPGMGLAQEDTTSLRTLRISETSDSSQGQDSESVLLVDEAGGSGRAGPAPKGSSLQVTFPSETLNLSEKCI
Method: as §1, §2
Biopsies from 26 patients were treated with selective EP receptor antagonists, Table 1. A combination of 3 antagonists was added to each MUAS chamber (serosal side), to single out and investigate the remaining non-inhibited EP receptor subtype. After antagonist incubation (45 min), cumulative doses of PGE2 were added (3 nM to 1 µM, serosal side). The EP4 receptor was also examined with another selective antagonist, GW627368X (GW-X, 5 µM, serosal side).
(§3) To assess agonists and receptors, data obtained from dose–response curves were analyzed with either a single-Michaelis–Menten model (srm) or a two-Michaelis–Menten receptor/site model (trm) using Sigmaplot 13.0 for Windows, Systat Software Inc. (USA/Canada). Outcome data were maximum SCC responses (RMax) and EC50 of these analyses.
From 2 agonist dose-response curves, one determined in the absence of a competitive antagonist, the other in its presence at only a single concentration, it is possible to calculate the antagonist apparent half inhibition dissociation constant at equilibrium, […]. […]

EP receptors (EP1-4) = assay: PGE2 stimulation of colonic mucosa biopsies in MUAS-chambers, short circuit current (SCC); assay type: cell-based, human
Method: as §1, §2
(§4) Biopsies from 47 patients were treated with PGE2 and selective EP receptor agonists to investigate receptor function, Table 1. A single agonist was added in increasing concentrations (1 nM to 5 µM, serosal side) to each MUAS-chamber. The final agonist concentration step was followed by the addition of 5 µM PGE2, to elicit a maximal PGE2-induced response.
as §3

EP4 receptor [2] = molecular target: T2, EP4 receptor; assay: EP4 agonist stimulation of colonic mucosa biopsies in MUAS-chambers, SCC; assay type: cell-based
Method: as §1, §2, §4, §3

Biopsies showing no increase in SCC (EP1 receptor): 4 out of 22
Molecule: CCCC[C@H](C)C[C@H](O)/C=C/[C@H]1[C@H](O)CC(=O)[C@@H]1CC(=O)C1CCC(C(=O)O)CC1 (some centres unmarked) [EP1 agonist, ONO-DI004]

Mean EC50 ratio (agonist EC50 with / without antagonist) (EP4 receptor [1]; GW-X 5 µM, 4 protocols): approximately 25
IC50 (EP4 receptor [1]; against PGE2 (and TCS 2510), GW-X 5 µM, from EC50 ratios, 14 individual experiments): ~210 nM and 210 nM
Type of inhibition of PGE2 (EP4 receptor [1]; low nanomolar PGE2 concentration range, rightward shift of the dose-response curve): competitive inhibition
Molecule: CCOc1c2c(c(OCC)c3ccccc13)C(=O)N(c1ccc(CC(=O)NS(=O)(=O)c3ccccc3)cc1)C2 [GW-X, GW627368X]

EP4 receptor potency of PGE2 (EP receptors (EP1-4); normal appearing colonic mucosa): low nanomolar range
RMax rank among agonists (EP receptors (EP1-4); srm and trm): highest
Average separation factor between EC50s of high and low affinity receptors (EP receptors (EP1-4); two receptor model (trm)): 64
Molecule: CCCCC[C@H](O)/C=C/[C@H]1[C@H](O)CC(=O)[C@@H]1C/C=C\CCCC(=O)O [PGE2, Prostaglandin E2]
PGE2 concentration at which SCC increased (as low as) (EP receptors (EP1-4); both patient groups (CRN and CTRL), serosal side): ≤ 1 nM

RMax as share of the PGE2 response (EP4 receptor [2]; CRN patients): ~75%
RMax as share of the PGE2 response (EP4 receptor [2]; CTRL patients): approximately 50%
Sensitivity / potency for SCC increase (EP4 receptor [2]; similar sensitivity to PGE2): high potency in the low nanomolar range
EC50 in CRN patients compared to CTRLs (EP4 receptor [2]; single receptor model (srm)): higher
Average separation factor between EC50s of high and low affinity receptors (EP4 receptor [2]; two receptor model (trm)): 15
RMax of low affinity receptors in CRN patients (EP4 receptor [2]; two receptor model (trm)): significantly increased
Molecule: TCS 2510 [EP4 agonist]
